Source: PubChem BioAssay AID2060905 (Molecular Pharmacology Branch, DTP, NCI, 2025)

Tested on: 282377-053-R-J1-PDC complex spheroid viability
Assay: Anticancer human tumor 282377-053-R-J1-PDC patient-derived colon adenocarcinoma cell line growth inhibition [RAS]
Settings: for IC50: curve of first compound; for viability, T/C: stronger effect = lower value
Procedure, shortened: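 Multi-cell-type spheroids: tumor cells plus HUVEC endothelial cells and mesenchymal stem cells. RAS-pathway inhibitors were combined with targeted agents, each dosed in half-log steps down from clinical Cmax, or from 10 microM when Cmax was unknown.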

[1] = second compound 0.00316 µM, first compound 0.00316 µM
[2] = second compound 0.00316 µM, first compound 0.01 µM
[3] = second compound 0.00316 µM, first compound 0.0316 µM
[4] = second compound 0.00316 µM, first compound 0.1 µM
[5] = second compound 0.00316 µM, first compound 0.316 µM
[6] = second compound 0.00316 µM, first compound 1 µM
[7] = second compound 0.01 µM, first compound 0.00316 µM
[8] = second compound 0.01 µM, first compound 0.01 µM
[9] = second compound 0.01 µM, first compound 0.0316 µM
[10] = second compound 0.01 µM, first compound 0.1 µM
[11] = second compound 0.01 µM, first compound 0.316 µM
[12] = second compound 0.01 µM, first compound 1 µM
[13] = second compound 0.0316 µM, first compound 0.00316 µM
[14] = second compound 0.0316 µM, first compound 0.01 µM
[15] = second compound 0.0316 µM, first compound 0.0316 µM
[16] = second compound 0.0316 µM, first compound 0.1 µM
[17] = second compound 0.0316 µM, first compound 0.316 µM
[18] = second compound 0.0316 µM, first compound 1 µM
[19] = second compound 0.1 µM, first compound 0.00316 µM
[20] = second compound 0.1 µM, first compound 0.01 µM
[21] = second compound 0.1 µM, first compound 0.0316 µM
[22] = second compound 0.1 µM, first compound 0.1 µM
[23] = second compound 0.1 µM, first compound 0.316 µM
[24] = second compound 0.1 µM, first compound 1 µM
[25] = second compound 0.316 µM, first compound 0.00316 µM
[26] = second compound 0.316 µM, first compound 0.01 µM
[27] = second compound 0.316 µM, first compound 0.0316 µM
[28] = second compound 0.316 µM, first compound 0.1 µM
[29] = second compound 0.316 µM, first compound 0.316 µM
[30] = second compound 0.316 µM, first compound 1 µM
[31] = second compound 1 µM, first compound 0.00316 µM
[32] = second compound 1 µM, first compound 0.01 µM
[33] = second compound 1 µM, first compound 0.0316 µM
[34] = second compound 1 µM, first compound 0.1 µM
[35] = second compound 1 µM, first compound 0.316 µM
[36] = second compound 1 µM, first compound 1 µM
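Also: spheroids exposed to agents for seven days before readout.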
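For viability, T/C in this document: luminescence viability as percent of DMSO vehicle control wells.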

`CC1(C)CCC(Nc2ncc(C(F)(F)F)c(-c3c[nH]c4c(P(C)(C)=O)c(C#N)ccc34)n2)CN1` (stereo unspecified) + C#Cc1c(F)ccc2cc(O)cc(-c3ncc4c(N5CC6CCC(C5)N6)nc(OCC56CCCN5CC(F)C6)nc4c3F)c12 showed an IC50 (second compound 0.0316 µM) of over 0.3 µM, an IC50 (second compound 0.1 µM) of over 0.3 µM and an IC50 (second compound 0.316 µM) of over 0.3 µM. It also gave an IC50 (second compound 1 µM) of over 0.3 µM, an IC50 (second compound 3.16 µM) of over 0.3 µM and an IC50 (second compound 10 µM) of over 0.3 µM. The viability, T/C (second compound 0.0316 µM, first compound 0.000949 µM) was 142%, the viability, T/C (second compound 0.0316 µM, first compound 0.003 µM) was 109% and the viability, T/C (second compound 0.0316 µM, first compound 0.00949 µM) was 91.4%. For the same molecule, the viability, T/C (second compound 0.0316 µM, first compound 0.03 µM) was 69%, the viability, T/C (second compound 0.0316 µM, first compound 0.0949 µM) was 71.2% and the viability, T/C (second compound 0.0316 µM, first compound 0.3 µM) was 66.8%. The viability, T/C (second compound 0.1 µM, first compound 0.000949 µM) was 103%, the viability, T/C (second compound 0.1 µM, first compound 0.003 µM) was 132% and the viability, T/C (second compound 0.1 µM, first compound 0.00949 µM) was 87.1%. The viability, T/C (second compound 0.1 µM, first compound 0.03 µM) was 72.6%, the viability, T/C (second compound 0.1 µM, first compound 0.0949 µM) was 71.9% and the viability, T/C (second compound 0.1 µM, first compound 0.3 µM) was 72.5%. It also gave a viability, T/C (second compound 0.316 µM, first compound 0.000949 µM) of 118%, a viability, T/C (second compound 0.316 µM, first compound 0.003 µM) of 92.6% and a viability, T/C (second compound 0.316 µM, first compound 0.00949 µM) of 92.3%. It also gave a viability, T/C (second compound 0.316 µM, first compound 0.03 µM) of 67.1%, a viability, T/C (second compound 0.316 µM, first compound 0.0949 µM) of 71.9% and a viability, T/C (second compound 0.316 µM, first compound 0.3 µM) of 57.8%. For the same molecule, the viability, T/C (second compound 1 µM, first compound 0.000949 µM) was 112%, the viability, T/C (second compound 1 µM, first compound 0.003 µM) was 110% and the viability, T/C (second compound 1 µM, first compound 0.00949 µM) was 96.9%. The viability, T/C (second compound 1 µM, first compound 0.03 µM) was 80.4%, the viability, T/C (second compound 1 µM, first compound 0.0949 µM) was 74.9% and the viability, T/C (second compound 1 µM, first compound 0.3 µM) was 67.7%. For the same molecule, the viability, T/C (second compound 3.16 µM, first compound 0.000949 µM) was 93%, the viability, T/C (second compound 3.16 µM, first compound 0.003 µM) was 103% and the viability, T/C (second compound 3.16 µM, first compound 0.00949 µM) was 98.8%. For the same molecule, the viability, T/C (second compound 3.16 µM, first compound 0.03 µM) was 75.4%, the viability, T/C (second compound 3.16 µM, first compound 0.0949 µM) was 83.6% and the viability, T/C (second compound 3.16 µM, first compound 0.3 µM) was 72.9%. It also gave a viability, T/C (second compound 10 µM, first compound 0.000949 µM) of 113%, a viability, T/C (second compound 10 µM, first compound 0.003 µM) of 87.3% and a viability, T/C (second compound 10 µM, first compound 0.00949 µM) of 98%. The viability, T/C (second compound 10 µM, first compound 0.03 µM) was 88.4%, the viability, T/C (second compound 10 µM, first compound 0.0949 µM) was 98.6% and the viability, T/C (second compound 10 µM, first compound 0.3 µM) was 76.7%.
`C=CC(=O)Nc1cc(Nc2nccc(-c3cn(C)c4ccccc34)n2)c(OC)cc1N(C)CCN(C)C` + C=CC(=O)N1CCN(c2nc(OCC3CCCN3C)nc3c(F)c(-c4nc(N)cc(C)c4C(F)(F)F)c(Cl)cc23)C(C)C1 gave an IC50 (second compound 0.00316 µM) of over 1 µM, an IC50 (second compound 0.01 µM) of over 1 µM and an IC50 (second compound 0.0316 µM) of over 1 µM. For the same molecule, the IC50 (second compound 0.1 µM) was over 1 µM, the IC50 (second compound 0.316 µM) was over 1 µM and the IC50 (second compound 1 µM) was over 1 µM. The viability, T/C [1] was 126%, the viability, T/C [2] was 113% and the viability, T/C [3] was 124%. The viability, T/C [4] was 102%, the viability, T/C [5] was 112% and the viability, T/C [6] was 114%. The viability, T/C [7] was 123%, the viability, T/C [8] was 111% and the viability, T/C [9] was 100%. The viability, T/C [10] was 106%, the viability, T/C [11] was 109% and the viability, T/C [12] was 100%. For the same molecule, the viability, T/C [13] was 112%, the viability, T/C [14] was 112% and the viability, T/C [15] was 100%. It also gave a viability, T/C [16] of 124%, a viability, T/C [17] of 114% and a viability, T/C [18] of 96.3%. The viability, T/C [19] was 118%, the viability, T/C [20] was 107% and the viability, T/C [21] was 136%. It also gave a viability, T/C [22] of 113%, a viability, T/C [23] of 94.7% and a viability, T/C [24] of 120%. For the same molecule, the viability, T/C [25] was 122%, the viability, T/C [26] was 107% and the viability, T/C [27] was 110%. It also gave a viability, T/C [28] of 105%, a viability, T/C [29] of 121% and a viability, T/C [30] of 122%. The viability, T/C [31] was 139%, the viability, T/C [32] was 116% and the viability, T/C [33] was 114%. It also gave a viability, T/C [34] of 118%, a viability, T/C [35] of 121% and a viability, T/C [36] of 137%.
For `O=C(c1ccc(F)c(F)c1Nc1ccc(I)cc1F)N1CC(O)([C@@H]2CCCCN2)C1` + C=CC(=O)N1CCN(c2nc(OCC3CCCN3C)nc3c(F)c(-c4nc(N)cc(C)c4C(F)(F)F)c(Cl)cc23)C(C)C1, the IC50 (second compound 0.00316 µM) was 0.0808 µM, the IC50 (second compound 0.01 µM) was 0.104 µM and the IC50 (second compound 0.0316 µM) was 0.13 µM. For the same molecule, the IC50 (second compound 0.1 µM) was 0.176 µM, the IC50 (second compound 0.316 µM) was 0.145 µM and the IC50 (second compound 1 µM) was 0.141 µM. It also gave a viability, T/C [1] of 90.2%, a viability, T/C [2] of 88.3% and a viability, T/C [3] of 77.2%. It also gave a viability, T/C [4] of 41.4%, a viability, T/C [5] of 32.6% and a viability, T/C [6] of 18.4%. The viability, T/C [7] was 102%, the viability, T/C [8] was 94% and the viability, T/C [9] was 68.8%. For the same molecule, the viability, T/C [10] was 52.3%, the viability, T/C [11] was 31.6% and the viability, T/C [12] was 17.7%. It also gave a viability, T/C [13] of 88.5%, a viability, T/C [14] of 87.3% and a viability, T/C [15] of 81.3%. The viability, T/C [16] was 56.1%, the viability, T/C [17] was 28.9% and the viability, T/C [18] was 20.7%. The viability, T/C [19] was 95.6%, the viability, T/C [20] was 86.2% and the viability, T/C [21] was 95.1%. For the same molecule, the viability, T/C [22] was 66.3%, the viability, T/C [23] was 32.9% and the viability, T/C [24] was 21.1%. It also gave a viability, T/C [25] of 101%, a viability, T/C [26] of 95.8% and a viability, T/C [27] of 87.2%. For the same molecule, the viability, T/C [28] was 57.8%, the viability, T/C [29] was 32.2% and the viability, T/C [30] was 17.9%. The viability, T/C [31] was 98.3%, the viability, T/C [32] was 93.7% and the viability, T/C [33] was 98.5%. For the same molecule, the viability, T/C [34] was 55.7%, the viability, T/C [35] was 35.5% and the viability, T/C [36] was 18%.
